The text below walks through data of article PMC12114630 (Pharmaceuticals, 2025).

The target of one experiment is T1, D3R (hD3R) (Homo sapiens, UniProt P35462).
T1 construct: gene DRD3; human cloned receptor stably expressed in HEK293 cells; membranes
T1 sequence (P35462 whole entry): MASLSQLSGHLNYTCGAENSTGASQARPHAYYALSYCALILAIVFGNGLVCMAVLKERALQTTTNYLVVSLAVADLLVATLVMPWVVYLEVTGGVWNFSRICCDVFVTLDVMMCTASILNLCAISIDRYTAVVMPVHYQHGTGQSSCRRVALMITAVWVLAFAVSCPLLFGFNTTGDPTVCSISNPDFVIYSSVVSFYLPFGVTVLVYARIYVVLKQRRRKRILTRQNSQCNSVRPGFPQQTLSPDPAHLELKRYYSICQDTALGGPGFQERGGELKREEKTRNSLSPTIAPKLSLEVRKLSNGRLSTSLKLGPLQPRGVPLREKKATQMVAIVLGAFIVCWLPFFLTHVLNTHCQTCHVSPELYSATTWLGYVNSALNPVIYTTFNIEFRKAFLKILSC
Nature of the experiment: [3H]N-methylspiperone competition, membranes. The format is binding. The note with it: read-out: pKi / D3R (converted). The source says:
[3H]N-methylspiperone competition, membranes on D3R (hD3R)
For the compound `CCCCC1CCN(CCN2C(=O)CCc3ccccc32)CC1` [compound 9, 1-(2-(4-Butylpiperidin-1-yl)ethyl)-3,4-dihydroquinolin-2(1H)-one], the Ki was 13200 nM.

For `O=C1CCc2ccccc2N1CCCN1CCc2ccccc2C1` [compound 20, 1-(3-(3,4-Dihydroisoquinolin-2(1H)-yl)propyl)-3,4-dihydroquinolin-2(1H)-one], the Ki is 229 nM.

`O=C1CCc2ccccc2N1CCC1CCN(Cc2ccccc2)CC1` [compound 17, 1-(2-(1-Benzylpiperidin-4-yl)ethyl)-3,4-dihydroquinolin-2(1H)-one]: the Ki was 8130 nM.

With `O=C1CCc2ccccc2N1CCCCCN1CCC(Cc2ccccc2)CC1` [compound 14, 1-(5-(4-Benzylpiperidin-1-yl)pentyl)-3,4-dihydroquinolin-2(1H)-one], the Ki is 407 nM.

Take `CCCCC1CCN(CCCCN2C(=O)CCc3ccccc32)CC1` [compound 10, 1-(4-(4-Butylpiperidin-1-yl)butyl)-3,4-dihydroquinolin-2(1H)-one]: the Ki is 309 nM.

As for `O=C1CCc2ccccc2N1CC1CCN(Cc2ccccc2)CC1` [compound 18, 1-((1-Benzylpiperidin-4-yl)methyl)-3,4-dihydroquinolin-2(1H)-one], the Ki was 7590 nM.

Regarding `O=C1CCc2ccccc2N1CCN1CCC(Cc2ccccc2)CC1` [compound 12, 1-(2-(4-Benzylpiperidin-1-yl)ethyl)-3,4-dihydroquinolin-2(1H)-one], the Ki is 933 nM.

Turning to `O=C1CCc2ccccc2N1CCCC1CCN(Cc2ccccc2)CC1` [compound 16, 1-(3-(1-Benzylpiperidin-4-yl)propyl)-3,4-dihydroquinolin-2(1H)-one], the Ki was 2000 nM.

As for `CCCCN1CCC(CCCN2C(=O)CCc3ccccc32)CC1` [compound 15, 1-(3-(1-Butylpiperidin-4-yl)propyl)-3,4-dihydroquinolin-2(1H)-one], the Ki is 1070 nM.

With `CCCCC1CCN(CCCCCN2C(=O)CCc3ccccc32)CC1` [compound 11, 1-(5-(4-Butylpiperidin-1-yl)pentyl)-3,4-dihydroquinolin-2(1H)-one], the Ki is 288 nM.

As for `O=C1CCc2ccccc2N1CCCN1CC=C(c2ccccc2)CC1` [compound 19, 1-(3-(4-Phenyl-3,6-dihydropyridin-1(2H)-yl)propyl)-3,4-dihydroquinolin-2(1H)-one], the Ki is 245 nM.

Consider `O=C1CCc2ccccc2N1CCCCN1CCC(Cc2ccccc2)CC1` [compound 13, 1-(4-(4-Benzylpiperidin-1-yl)butyl)-3,4-dihydroquinolin-2(1H)-one], for which the Ki was 302 nM.

The next experiment addresses T2, D4R (BRET assay) (Homo sapiens, UniProt P21917).
T2 construct: gene DRD4; expressed in HEK293T cells for BRET functional assays
T2 sequence (P21917 1-419): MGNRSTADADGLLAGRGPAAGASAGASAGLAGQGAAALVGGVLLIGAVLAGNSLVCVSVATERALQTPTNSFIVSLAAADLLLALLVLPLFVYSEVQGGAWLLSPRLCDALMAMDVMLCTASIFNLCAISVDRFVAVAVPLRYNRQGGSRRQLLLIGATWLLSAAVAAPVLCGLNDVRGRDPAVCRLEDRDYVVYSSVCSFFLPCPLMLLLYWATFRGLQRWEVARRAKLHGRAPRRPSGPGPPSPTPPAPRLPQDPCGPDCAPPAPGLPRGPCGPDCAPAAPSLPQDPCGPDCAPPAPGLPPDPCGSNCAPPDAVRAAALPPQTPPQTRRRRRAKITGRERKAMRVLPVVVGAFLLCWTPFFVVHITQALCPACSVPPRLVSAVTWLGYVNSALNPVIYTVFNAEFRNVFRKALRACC
Nature of the experiment: BRET Go activation, agonist mode. It counts as cell-based. The note with it: read-out: 16 (converted). A general note: In BRET a luciferase serves as donor, and the signal depends on an acceptor being close.
For the compound `O=C1CCc2ccccc2N1CCCC1CCN(Cc2ccccc2)CC1` [compound 16, 1-(3-(1-Benzylpiperidin-4-yl)propyl)-3,4-dihydroquinolin-2(1H)-one], the EC50 is 4.37 nM.

Another experiment addresses T3, D4R (hD4.4R) (Homo sapiens, UniProt P21917).
T3 construct: gene DRD4; human cloned receptor stably expressed in HEK293 cells; membranes
T3 sequence (P21917 1-419): T2 sequence (P21917 1-419)
Nature of the experiment: [3H]N-methylspiperone competition, membranes. The format is binding. The conditions noted are these: read-out: pKi / D4R (converted). The source says:
[3H]N-methylspiperone competition, membranes on D4R (hD4.4R)
For `CCCCC1CCN(CCN2C(=O)CCc3ccccc32)CC1` [compound 9, 1-(2-(4-Butylpiperidin-1-yl)ethyl)-3,4-dihydroquinolin-2(1H)-one], the Ki is 17.4 nM.

Consider `O=C1CCc2ccccc2N1CCCN1CCc2ccccc2C1` [compound 20, 1-(3-(3,4-Dihydroisoquinolin-2(1H)-yl)propyl)-3,4-dihydroquinolin-2(1H)-one], for which the Ki was 28.2 nM.

On to `O=C1CCc2ccccc2N1CCC1CCN(Cc2ccccc2)CC1` [compound 17, 1-(2-(1-Benzylpiperidin-4-yl)ethyl)-3,4-dihydroquinolin-2(1H)-one], for which the Ki was 302 nM.

As for `O=C1CCc2ccccc2N1CCCCCN1CCC(Cc2ccccc2)CC1` [compound 14, 1-(5-(4-Benzylpiperidin-1-yl)pentyl)-3,4-dihydroquinolin-2(1H)-one], the Ki is 45.7 nM.

On to `CCCCC1CCN(CCCCN2C(=O)CCc3ccccc32)CC1` [compound 10, 1-(4-(4-Butylpiperidin-1-yl)butyl)-3,4-dihydroquinolin-2(1H)-one], for which the Ki is 23.4 nM.

`O=C1CCc2ccccc2N1CC1CCN(Cc2ccccc2)CC1` [compound 18, 1-((1-Benzylpiperidin-4-yl)methyl)-3,4-dihydroquinolin-2(1H)-one]: the Ki was 275 nM.

For the compound `O=C1CCc2ccccc2N1CCN1CCC(Cc2ccccc2)CC1` [compound 12, 1-(2-(4-Benzylpiperidin-1-yl)ethyl)-3,4-dihydroquinolin-2(1H)-one], the Ki was 0.661 nM.

Turning to `O=C1CCc2ccccc2N1CCCC1CCN(Cc2ccccc2)CC1` [compound 16, 1-(3-(1-Benzylpiperidin-4-yl)propyl)-3,4-dihydroquinolin-2(1H)-one], the Ki is 1.62 nM.

Regarding `CCCCN1CCC(CCCN2C(=O)CCc3ccccc32)CC1` [compound 15, 1-(3-(1-Butylpiperidin-4-yl)propyl)-3,4-dihydroquinolin-2(1H)-one], the Ki is 759 nM.

On to `CCCCC1CCN(CCCCCN2C(=O)CCc3ccccc32)CC1` [compound 11, 1-(5-(4-Butylpiperidin-1-yl)pentyl)-3,4-dihydroquinolin-2(1H)-one], for which the Ki is 52.5 nM.

For `O=C1CCc2ccccc2N1CCCN1CC=C(c2ccccc2)CC1` [compound 19, 1-(3-(4-Phenyl-3,6-dihydropyridin-1(2H)-yl)propyl)-3,4-dihydroquinolin-2(1H)-one], the Ki is 1.51 nM.

On to `O=C1CCc2ccccc2N1CCCCN1CCC(Cc2ccccc2)CC1` [compound 13, 1-(4-(4-Benzylpiperidin-1-yl)butyl)-3,4-dihydroquinolin-2(1H)-one], for which the Ki is 22.4 nM.

The target of another experiment is T4, D2R (hD2R) (Homo sapiens, UniProt P14416).
T4 construct: gene DRD2; human cloned receptor stably expressed in HEK293 cells; membranes
T4 sequence (P14416 whole entry): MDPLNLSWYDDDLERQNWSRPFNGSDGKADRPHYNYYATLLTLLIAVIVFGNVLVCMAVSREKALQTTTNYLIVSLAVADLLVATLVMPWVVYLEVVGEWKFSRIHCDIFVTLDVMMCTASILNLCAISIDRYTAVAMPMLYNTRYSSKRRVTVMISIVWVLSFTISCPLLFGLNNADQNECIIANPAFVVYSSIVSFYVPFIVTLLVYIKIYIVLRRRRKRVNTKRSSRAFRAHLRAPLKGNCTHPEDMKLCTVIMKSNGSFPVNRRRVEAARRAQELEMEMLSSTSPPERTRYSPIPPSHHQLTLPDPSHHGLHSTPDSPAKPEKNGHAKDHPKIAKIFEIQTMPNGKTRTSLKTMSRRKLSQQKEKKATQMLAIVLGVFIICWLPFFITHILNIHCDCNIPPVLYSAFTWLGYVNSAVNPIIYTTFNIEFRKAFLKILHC
Nature of the experiment: [3H]N-methylspiperone competition, membranes. The format is binding. The note with it: read-out: pKi / D2R (converted). The source says: [3H]N-methylspiperone competition, membranes on D2R (hD2R)
In the case of `CCCCC1CCN(CCN2C(=O)CCc3ccccc32)CC1` [compound 9, 1-(2-(4-Butylpiperidin-1-yl)ethyl)-3,4-dihydroquinolin-2(1H)-one], the Ki was 8910 nM.

As to `O=C1CCc2ccccc2N1CCCN1CCc2ccccc2C1` [compound 20, 1-(3-(3,4-Dihydroisoquinolin-2(1H)-yl)propyl)-3,4-dihydroquinolin-2(1H)-one], the Ki was 447 nM.

For the compound `O=C1CCc2ccccc2N1CCC1CCN(Cc2ccccc2)CC1` [compound 17, 1-(2-(1-Benzylpiperidin-4-yl)ethyl)-3,4-dihydroquinolin-2(1H)-one], the Ki was 12600 nM.

Consider `O=C1CCc2ccccc2N1CCCCCN1CCC(Cc2ccccc2)CC1` [compound 14, 1-(5-(4-Benzylpiperidin-1-yl)pentyl)-3,4-dihydroquinolin-2(1H)-one], for which the Ki was 813 nM.

`CCCCC1CCN(CCCCN2C(=O)CCc3ccccc32)CC1` [compound 10, 1-(4-(4-Butylpiperidin-1-yl)butyl)-3,4-dihydroquinolin-2(1H)-one]: the Ki is 1350 nM.

Turning to `O=C1CCc2ccccc2N1CC1CCN(Cc2ccccc2)CC1` [compound 18, 1-((1-Benzylpiperidin-4-yl)methyl)-3,4-dihydroquinolin-2(1H)-one], the Ki was 13200 nM.

Consider `O=C1CCc2ccccc2N1CCN1CCC(Cc2ccccc2)CC1` [compound 12, 1-(2-(4-Benzylpiperidin-1-yl)ethyl)-3,4-dihydroquinolin-2(1H)-one], for which the Ki is 661 nM.

For `O=C1CCc2ccccc2N1CCCC1CCN(Cc2ccccc2)CC1` [compound 16, 1-(3-(1-Benzylpiperidin-4-yl)propyl)-3,4-dihydroquinolin-2(1H)-one], the Ki was 3630 nM.

Regarding `CCCCN1CCC(CCCN2C(=O)CCc3ccccc32)CC1` [compound 15, 1-(3-(1-Butylpiperidin-4-yl)propyl)-3,4-dihydroquinolin-2(1H)-one], the Ki is 10200 nM.

With `CCCCC1CCN(CCCCCN2C(=O)CCc3ccccc32)CC1` [compound 11, 1-(5-(4-Butylpiperidin-1-yl)pentyl)-3,4-dihydroquinolin-2(1H)-one], the Ki is 302 nM.

As to `O=C1CCc2ccccc2N1CCCN1CC=C(c2ccccc2)CC1` [compound 19, 1-(3-(4-Phenyl-3,6-dihydropyridin-1(2H)-yl)propyl)-3,4-dihydroquinolin-2(1H)-one], the Ki was 575 nM.

Regarding `O=C1CCc2ccccc2N1CCCCN1CCC(Cc2ccccc2)CC1` [compound 13, 1-(4-(4-Benzylpiperidin-1-yl)butyl)-3,4-dihydroquinolin-2(1H)-one], the Ki was 1070 nM.

In a further experiment the target is T2, D4R (BRET assay). As to the kind of experiment: BRET Go activation, antagonist mode. The note with it: read-out: 12 (converted). It counts as cell-based.
Consider `O=C1CCc2ccccc2N1CCN1CCC(Cc2ccccc2)CC1` [compound 12, 1-(2-(4-Benzylpiperidin-1-yl)ethyl)-3,4-dihydroquinolin-2(1H)-one], for which the IC50 is 214 nM.

The same experiment, now with this note: read-out: 16 (converted).
As to `O=C1CCc2ccccc2N1CCCC1CCN(Cc2ccccc2)CC1` [compound 16, 1-(3-(1-Benzylpiperidin-4-yl)propyl)-3,4-dihydroquinolin-2(1H)-one], the IC50 is 61.7 nM.
